In patent US20260174682A1, “GAMMA-AMINOBUTYRIC ACID DERIVATIVE COMPRISING POLYCYCLIC STRUCTURE, METHOD FOR PREPARING SAME, AND USE THEREOF” (ZHONGSHAN INSTITUTE FOR DRUG DISCOVERY, SIMM, CAS., priority 2022, published 2026):
Marks after values point to notes of the source that are not given here.

How the values were obtained:
[1] = system: Sprague Dawley (SD) rat spared nerve injury (SNI) model; experiment: Analgesic effect in rat spared nerve injury (SNI) chronic neuropathic pain model; type: in vivo; details: SNI rats
Experimental: Establishment of the SNI model: Surgery was performed according to an aseptic operation method, and various surgical instruments, including scalpels, tweezers, suture needles/threads, surgical cotton, etc., were disinfected before the surgery. Animals were anesthetized by intraperitoneal injection of a Zoletil™ 50 solution at 50 mg/kg and then placed in lateral decubitus positions. After hair in surgical areas of lower bodies of animals was shaved, the animals were disinfected alternately with iodophor and 75% alcohol. The skin was cut at upper edges of left hind limbs, muscles were bluntly separated to expose a sciatic nerve trunk and 3 branches thereof, i.e., a tibial nerve, a common peroneal nerve and a sural nerve. The tibial nerve and the common peroneal nerve were ligated and cut, and the sural nerve was preserved and maintained intact. After the surgery, wounds were sutured layer by layer, the animals were administered with 25% ampicillin (1 mL/kg) through intraperitoneal injection to prevent infection, and routine nursing was performed. In sham group, only the sciatic nerve and the branches thereof were exposed, the nerves were not ligated and cut, and other operations were the same as those in the model group. Detection of a mechanical pain threshold: A Von-frey test fiber was used to detect the mechanical pain threshold of the sole of an operative side of each animal on day 1, day 3 and day 7 after the surgery, respectively. An “up-and-down” method was used as a method of detecting the mechanical pain threshold at the stimulation intensity of 0.4, 0.6, 1, 2, 4, 6, 8, and 15 g. During the test, the test fiber was used to vertically stimulate the site, close to an outer side, in the sole center of the left hind paw of a rat for 6-8 seconds each time at an interval of 5 seconds. A pain response was shown as an obvious paw withdrawal, paw licking, or paw lifting behavior of the animals during each test. From day 11 after the surgery, the animals were placed in an experimental environment for adaptation, wherein the adaptation was performed continuously for 15 min per day for 3 days. On day 13, a basic value of mechanical pain hypersensitivity was detected after the adaptation was completed. The mechanical pain hypersensitivity was expressed by a 50% paw-withdrawal threshold (PWT) according to a calculation formula of 50% PWT (g)=10^xf+kδ, wherein xf is a log value of a fiber test force, k is a tabular value, and δ is an average spacing of the log value of the fiber test force.
Pharmacodynamic evaluation: According to basic threshold detection results on day 13 after the surgery, the animals in the model group without the mechanical pain hypersensitivity, that is, the PWT was greater than 4 g, were excluded, and the other successfully modeled animals were used for a formal test. On day 14 after the surgery, various compound to be tested were newly formulated. Pregabalin was directly dissolved with 0.9% sodium chloride at a dose of 30 mg/kg to obtain a solution at a desired concentration. (±)—I-7, (±)—I-3 and (±)—I-4 p-toluenesulfonate were also completely dissolved with a 0.9% sodium chloride solution at a dose of 30 mg/kg (calculated by free base). The successfully modeled animals were randomly divided into 5 groups with 8 animals in each group. In addition, 7 animals were selected in the sham group. […] The mechanical pain hypersensitivity response of the left hind paw was detected at 1 h, 2 h, 4 h, 6 h, 8 h, 10 h, and 24 h after the administration. Evaluation was performed by using a blind method, and a detection method was the same as above. An area under a mechanical pain threshold-time curve (AUC) was calculated using GraphPad Prism Version 8.0.1 software.

[2] = system: mouse model with subcutaneous injection of pentylenetetrazole (sc-PTZ); experiment: Antiepileptic effect in mouse model with subcutaneous injection of pentylenetetrazole (sc-PTZ); type: in vivo; details: for Clonic seizure incidence / Convulsive seizure incidence / Generalized clonic seizure incidence / Mortality / Tonic seizure incidence: sc-PTZ 100 mg/kg, ICR mice, intraperitoneal 30 mg/kg (own compounds calculated by free base), 1 h observation; for latent periods of generalized clonic seizures, tonic seizures and death: 30 mg/kg (calculated by free base), FIG. 6
Experimental: A negative vehicle control group, a positive drug control group (pregabalin and gabapentin) and a test group of the compounds of the present application were set. Male ICR mice with a body weight of 22±2 g were selected. […] After fasted for 12 h, the mice were administered the compounds of the present application or the control drugs, and then subcutaneously injected with pentylenetetrazole (PTZ) to induce epilepsy seizure behaviors after a certain time interval (2 h for pregabalin, 1 h for gabapentin, and 3 h for the compounds of the present application). In an induction model, pentylenetetrazole (PTZ) was dissolved in normal saline and administered to the mice through the way of subcutaneous injection (10 mL/kg, administration dose 100 mg/kg). After the injection of PTZ, behavioral observations on the mice were conducted for 1 h, and the latent periods and numbers of the mice with convulsive seizures, clonic seizures, tonic seizures and death after the injection of PTZ were recorded.
Statistical method: Protection rates and mortality of different administration groups were separately compared with those of the vehicle control group to carry out a Fisher's exact test. The seizure time and the latent periods were analyzed by one-way ANOVA.

[3] = oral gavage 10 mg/kg (calculated by free base), from AUC of mechanical pain threshold-time curve to 24 h

SMILES	area under the mechanical pain threshold-time curve compared with the vehicle control group ([1]; oral gavage 10 mg/kg (calculated by free base))	maximum possible effect (MPE) [1, 3] [%]	Clonic seizure incidence [2]	Convulsive seizure incidence [2]	Generalized clonic seizure incidence [2]	Mortality [2]	Tonic seizure incidence [2]	generalized clonic seizures (percent of animals; vehicle 100%) ([2]; sc-PTZ mice, 30 mg/kg) [%]	tonic seizure incidence (percent of animals; vehicle 75%) ([2]; sc-PTZ mice, 30 mg/kg) [%]	latent periods of generalized clonic seizures, tonic seizures and death ([2]; sc-PTZ mice)	maximum possible effect (% MPE) ([1]; oral gavage 30 mg/kg (calculated by free base), from AUC of mechanical pain threshold-time curve to 24 h) [%]	mortality (percent of animals; vehicle 75%) ([2]; sc-PTZ mice, 30 mg/kg) [%]
Cc1ccc(S(=O)(=O)O)cc1.NCC1(CC(=O)O)CC2C3C=CC(C3)C21 (single isomer, unassigned; (+)) [(+)-I-4 p-toluenesulfonate]	significantly improved	69.09	10/10	10/10	6/10	3/10	2/10	60	20	significantly prolong		
CC(C)C[C@H](CN)CC(=O)O [Pregabalin]		23.04	8/8	8/8	5/8	1/8*	1/8**	62.5	12.5	significantly prolong	110.90	12.5
